This is an account of results in patent US20200331904A1, “3-AMINO-[1,2,4]-TRIAZOLE DERIVATIVES AND THEIR USE FOR CONTROLLING UNDESIRED PLANT GROWTH” (Bayer CropScience Aktiengesellschaft, priority 2017, published 2020).

Structures are written as SMILES.

Assay type in all cases: in vivo
Assay [1] deals with Echinochloa crus-galli. The assay is described as follows: Pre-emergence herbicidal efficacy, ECHCG. As to conditions: Table B1, application rate 320 g/ha, scored visually after about 3 weeks vs untreated controls. The essentials: (§1)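 Seeds were sown in pots and covered with soil; WP or EC formulations were sprayed onto the soil surface as aqueous suspension or emulsion with 0.5% additive. Pots were kept in a greenhouse, and after about 3 weeks damage was rated visually as percent versus untreated controls (100% = plants dead, 0% = like control).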

The test system of assay [2] is Lolium rigidum. The assay is described as follows: Pre-emergence herbicidal efficacy, LOLRI. The following applies: Table B1, application rate 320 g/ha, scored visually after about 3 weeks vs untreated controls. In a few lines:
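Seeds sown in pots and covered with soil. Greenhouse-grown about 3 weeks, then visually scored as % activity vs untreated controls (100% = dead, 0% = like control).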

Another assay has as its system Setaria viridis. The assay is described as follows: Pre-emergence herbicidal efficacy, SETVI. The following applies: Table B1, application rate 320 g/ha, scored visually after about 3 weeks vs untreated controls. The essentials:
as §1

The test system of the next assay is Abutilon theophrasti. Put plainly: Pre-emergence herbicidal efficacy, ABUTH. The following applies: Table B1, application rate 320 g/ha, scored visually after about 3 weeks vs untreated controls. In a few lines:
as §1

The subject of assay [3] is Amaranthus retroflexus. The assay is described as follows: Pre-emergence herbicidal efficacy, AMARE. As to conditions: Table B1, application rate 320 g/ha, scored visually after about 3 weeks vs untreated controls. In a few lines:
as §1

Another assay relates to Matricaria inodora. The assay is described as follows: Pre-emergence herbicidal efficacy, MATIN. As to conditions: Table B1, application rate 320 g/ha, scored visually after about 3 weeks vs untreated controls. In a few lines:
as §1

The subject of another assay is Polygonum convolvulus. Put plainly: Pre-emergence herbicidal efficacy, POLCO. As to conditions: Table B1, application rate 320 g/ha, scored visually after about 3 weeks vs untreated controls. The essentials: as §1
Assay [4] concerns Stellaria media. The assay is described as follows: Pre-emergence herbicidal efficacy, STEME. As to conditions: Table B1, application rate 320 g/ha, scored visually after about 3 weeks vs untreated controls. The essentials: as §1
The test system of assay [5] is Viola tricolor. Put plainly: Pre-emergence herbicidal efficacy, VIOTR. As to conditions: Table B1, application rate 320 g/ha, scored visually after about 3 weeks vs untreated controls. The essentials: as §1
Assay [6] has as its system Veronica persica. The assay is described as follows: Pre-emergence herbicidal efficacy, VERPE. As to conditions: Table B1, application rate 320 g/ha, scored visually after about 3 weeks vs untreated controls. In a few lines:
as §1

Assay [7] deals with harmful plants. Put plainly: Pre-emergence herbicidal action. As to conditions: applied pre-emergence. The source says:
C.1 Pre-Emergence Herbicidal Action and Crop Plant Compatibility
Seeds of monocotyledonous and dicotyledonous weed plants and crop plants are placed in plastic or organic planting pots and covered with soil. The compounds of the invention, formulated in the form of wettable powders (WP) or as emulsion concentrates (EC), are then applied onto the surface of the covering soil as aqueous suspension or emulsion with addition of 0.5% additive at a water application rate of […] (converted). After the treatment, the pots are placed in a greenhouse and kept under good growth conditions for the trial plants. After about 3 weeks, the effect of the preparations is scored visually in comparison with untreated controls as percentages. For example, 100% activity=the plants have died, 0% activity=like control plants.

In assay [8] the test system is Echinochloa crus-galli. The assay is described as follows: Post-emergence herbicidal efficacy, ECHCG. The following applies: application rate 320 g/ha, rated visually after about 3 weeks. The source says: (§2) ABUTH: Abutilon theophrasti ALOMY: Alopecurus myosuroides AMARE: Amaranthus retroflexus AVEFA: Avena fatua CYPES: Cyperus esculentus ECHCG: Echinochloa crus-galli LOLMU: Lolium multiflorum MATIN: Matricaria inodora PHBPU: Ipomoea purpurea POLCO: Polygonum convolvulus SETVI: Setaria viridis STEME: Stellaria media VERPE: Veronica persica VTOTR: Viola tricolor
(§3) C.2 Post-Emergence Herbicidal Action and Crop Plant Compatibility
(§4) Seeds of monocotyledonous and dicotyledonous weeds and crop plants are placed in sandy loam in plastic or organic planting pots, covered with soil and cultivated in a greenhouse under controlled growth conditions. 2 to 3 weeks after sowing, the test plants are treated at the one-leaf stage. The compounds of the invention, formulated in the form of wettable powders (WP) or as emulsion concentrates (EC), are then sprayed onto the green parts of the plants as aqueous suspension or emulsion with addition of 0.5% additive at a water application rate of […] (converted). After the test plants had been kept in the greenhouse under optimum growth conditions for about 3 weeks, the activity of the preparations is rated visually in comparison to untreated controls. For example, 100% activity=the plants have died, 0% activity=like control plants.

The subject of assay [9] is Lolium rigidum. Put plainly: Post-emergence herbicidal efficacy, LOLRI. As to conditions: application rate 320 g/ha, rated visually after about 3 weeks. The method, then: as §3, §4
The subject of assay [10] is Amaranthus retroflexus. The assay is described as follows: Post-emergence herbicidal efficacy, AMARE. As to conditions: application rate 320 g/ha, rated visually after about 3 weeks.
From the text: as §2, §3, §4

For assay [11], the system named is Stellaria media. Put plainly: Post-emergence herbicidal efficacy, STEME. As to conditions: application rate 320 g/ha, rated visually after about 3 weeks.
From the text: as §2, §3, §4

Assay [12] relates to Viola tricolor. The assay is described as follows: Post-emergence herbicidal efficacy, VIOTR. The following applies: application rate 320 g/ha, rated visually after about 3 weeks (Table B5). In a few lines:
(§5)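 Greenhouse plants in sandy loam were sprayed at the one-leaf stage, 2–3 weeks after sowing. After about 3 weeks, activity was rated visually against untreated controls, from 0% (like control) to 100% (plants dead).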

The test system of assay [13] is Veronica persica. Put plainly: Post-emergence herbicidal efficacy, VERPE. The following applies: application rate 320 g/ha, rated visually after about 3 weeks (Table B5). In a few lines:
as §5

For assay [14], the system named is harmful plants. The assay is described as follows: Post-emergence herbicidal action. As to conditions: applied post-emergence. The method, then: as §3, §4

For `Cc1ccc2c(c1)[C@H](Nc1nc3n(n1)CCN(S(=O)(=O)C(C)C)C3)CCC2` [Example I-199], the “Herbicidal efficacy against ECHCG” value in the assay with Echinochloa crus-galli [1] is on record as 100%. In addition, the “Herbicidal efficacy against LOLRI” value in the assay with Lolium rigidum [2] came to 100%. In addition, in the assay with Setaria viridis, the “Herbicidal efficacy against SETVI” value is 100%. Besides, the “Herbicidal efficacy against ABUTH” value in the assay on Abutilon theophrasti is reported as 100%. For the same compound, the “Herbicidal efficacy against AMARE” value in the assay on Amaranthus retroflexus [3] is listed as 100%. The “Herbicidal efficacy against MATIN” value with Matricaria inodora is 100%. Moreover, in the assay with Polygonum convolvulus, the “Herbicidal efficacy against POLCO” value was found to be 100%. The “Herbicidal efficacy against STEME” value in the assay with Stellaria media [4] is 100%. Also, the “Herbicidal efficacy against VIOTR” value with Viola tricolor [5] was 100%. The “Herbicidal efficacy against VERPE” value with Veronica persica [6] is on record as 100%. In addition, the “herbicidal efficacy against harmful plants” value with harmful plants [7] is reported as “very good herbicidal efficacy”.

As for `Cc1ccc2c(c1)C(Nc1nc3n(n1)CCC(=O)N3C)CCC2` (centres unmarked) [Example I-231], the “Herbicidal efficacy against ECHCG” value in the assay with Echinochloa crus-galli [1] and with Echinochloa crus-galli [8] was 100% in each case. The “Herbicidal efficacy against LOLRI” value was determined as 100% in the assay with Lolium rigidum [2] and 80% in the assay with Lolium rigidum [9]. Moreover, in the assay with Setaria viridis, the “Herbicidal efficacy against SETVI” value amounted to 100%. Besides, the “Herbicidal efficacy against ABUTH” value with Abutilon theophrasti is 100%. The “Herbicidal efficacy against AMARE” value worked out at 100% in the assay on Amaranthus retroflexus [3] and 80% in the assay on Amaranthus retroflexus [10]. For the same compound, the “Herbicidal efficacy against MATIN” value with Matricaria inodora is 100%. For the same compound, the “Herbicidal efficacy against POLCO” value in the assay on Polygonum convolvulus was determined as 100%. For the same compound, the “Herbicidal efficacy against STEME” value amounted to 100% in the assay with Stellaria media [4] and 80% in the assay on Stellaria media [11]. The entries for the “Herbicidal efficacy against VIOTR” value with Viola tricolor [5] and with Viola tricolor [12] were 100% and 90%, respectively. Besides, the entries for the “Herbicidal efficacy against VERPE” value with Veronica persica [6] and in the assay on Veronica persica [13] were 100% and 90%, respectively. Also, the “herbicidal efficacy against harmful plants” value with harmful plants [7] and with harmful plants [14] was “very good herbicidal efficacy” each time.
